These results are taken from a melting point compilation (Tetko et al.; mined from patent text by program, amines drawn as free bases though some values may be those of a salt).

For orientation: melting point means the temperature of the solid-liquid transition.

Bounds are passed on as bounds.

On to `CCOC(=O)NC1CCCCn2c1nc(-c1ccncn1)cc2=O` (stereo not given), for which the melting point was in the range of 168 to 170 °C.
`CC(C)(C)CC(C)(C)c1cc(-c2ccccc2)c(O)c(-n2nc3ccc(-c4ccccc4)cc3n2)c1` had a melting point of 123 to 125 °C.
Under `CC(C)CC(NC(=O)C1CCCN1C(=O)OCc1ccccc1)OCC(=O)O` (stereo not given) stands 118 to 120 °C; under `CCOC(=O)C(C#N)=C1CCN(c2ccc(OC)cc2)CC1`, 87 °C.
The figure for `CC[C@H](C)[C@H](N)C(=O)NC(C)COc1ccc(C#N)cc1` (stereo not given in full) is 64 to 67 °C; for `O=C1CCCN1CCCN=c1sc2ccc(Cl)cc2s1` it is 97 to 97.5 °C; for `CC(=O)Nc1ccc(S(=O)(=O)F)cc1` it is 169 to 171 °C.
With `N#CSCC(Br)=C(Br)CBr`, the melting point fell in the range of 89 to 91 °C.
`COc1cc(C=O)cc(Cl)c1OCCBr`: the melting point fell in the range of 52 to 54 °C.
Take `CCCCOc1c(C=O)n(C)c(=O)c2cc(Cl)c(Cl)cc12`: the melting point fell in the range of 114 to 115 °C.
In turn, `CC(C)NC(=O)Nc1cc(C(C)(C)C)on1` yielded a melting point of 135 to 138 °C.
`Nc1ccc(-c2cnns2)cc1` returned a melting point of 126 to 128 °C.
On to `CCCCNS(=O)(=O)CC(O)C(O)C(CC1CCCCC1)NC(=O)C(Cc1c[nH]cn1)NS(=O)(=O)CCc1ccccc1` (stereo not given), for which the melting point lay in the range of 208 to 210 °C.
Under `C=CCOn1c(=O)c2cc(F)c(F)cc2n(Cc2ccccc2)c1=O` stands 130 to 132 °C.
Molecule `CCCc1c(OCCCCCOc2ccc(C(=O)c3cccc(C(=O)O)c3)cc2CCC(=O)O)ccc2c1OCCC2=O` had a melting point of 122 to 128 °C.
`O=C(COc1cc(C(=O)O)c(O)c2ccccc12)c1ccccc1` came in with a melting point of 120 to 121 °C.
Take `CC(C)CNC(=O)c1ccc(C2CC2c2ccc(Cl)cc2)cc1` (stereo not given): the melting point worked out at 110 °C.
The figure for `CCN1CCC(CNC(=O)c2cc(Cl)c(N)[nH]c2=O)CC1` is 136 to 140 °C.
On to `Oc1ccc(-c2nnc(CSCCOc3ccccc3)n2Cc2ccccc2)cc1`, for which the melting point is 64 to 66 °C.
`CCN1CCC(C(=O)O)(S(=O)(=O)c2ccc(Oc3ccc(Cl)cc3)cc2)CC1` gave a melting point of 184 °C.
The figure for `OC1CCc2c(Br)ccc(Nc3cc(-c4ccc(C(F)(F)F)cc4)ncn3)c2C1` (stereo not given) is 192 °C; for `CN(C)c1nc2sc3c(NCc4cccnc4)ncnc3c2c2c1COC(C)(C)C2` it is 250 to 252 °C; for `COc1ccc2ccc(Nc3cc(-c4ccc(C(F)(F)F)cc4)ncn3)cc2n1` it is 199 °C.
The figure for `Cc1cc(Cl)ccc1N1CCC(=O)N(C)C1=O` is 120 to 127 °C; for `CC(=O)Cc1cccc(S(N)(=O)=O)c1` it is 155 to 157 °C.
As to `CC(NC(=O)C(CS)C1CCc2ccccc21)C(=O)O` (stereo not given), the melting point was 121 °C.
Consider `COc1ccc2c(c1)OC(=O)N(C1CCCCC1)C2`, for which the melting point lay in the range of 76 to 77 °C.
`CN1CCN(Cc2c(C(=O)O)nc3c(=O)[nH]c4cc(C(F)(F)F)ccc4n23)CC1` returned a melting point of more than 240 °C.
The molecule `N#CCCCCCN1CCc2c(c3cc(F)ccc3n2-c2ccc(F)cc2)C1` showed a melting point of 90 to 98 °C.
In turn, `Cn1nnc(-c2cccc([N+](=O)[O-])c2)n1` came in with a melting point of 105 °C.
Consider `CCC(C)NC(=O)OC1c2ccccc2C(=O)N1c1ccc2ccc(Cl)nc2n1` (stereo not given), for which the melting point is 220 to 222 °C.
Molecule `COc1cccc(CN2Cc3cc(OC)c(OCc4ccccc4)cc3C(OC)C2)c1` (stereo not given) displayed a melting point of 96 to 97 °C.
For the molecule `CC(C)c1ccc2oc(C(O)COc3ccc(CO)cc3)cc2c1` (stereo not given), the melting point fell in the range of 98 to 100 °C.
As to `COc1cc2nc(N3CCOCC3)n3cnnc3c2cc1OC`, the melting point lay in the range of 216 to 218 °C.
Molecule `O=C1CCCc2ccc(OCCCCN3CCN(c4cccc5c4CCC5)CC3)nc2N1` registered a melting point of 207 to 208 °C.
Under `CCCCCCCCCC1OC1C(=O)O` (stereo not given) stands 56 to 57 °C; under `CCOC(=O)c1cc(C)n(-c2cccc(S(C)(=O)=O)c2)c1-c1ccccc1`, 131 to 133 °C; under `CCn1c(=O)n(CCN2CC[C@H](NC(=O)c3cc(Cl)c(N)c4c3OCC4)[C@H](OC)C2)c2ccccc21` (relative stereo), 174 °C.
Turning to `O=C(O)c1cc2c(c(C(=O)O)c1)NCCC2`, the melting point is 298 to 299 °C.
`O=C(Cc1ccccc1)Oc1cc(=O)n(-c2ccccc2)c2ncccc12` gave a melting point of 179 to 180 °C.
Under `COc1ccc(C)c(NCc2ccccc2)c1` stands 81 to 82 °C.
The molecule `CCOC(=O)C1(C(=O)OCC)C(CC)CC(O)N1C(C)=O` (stereo not given) gave a melting point of 106 to 109 °C.
In turn, `COc1ccc(C2C3=C(COC3=O)Nc3ccc4nn[nH]c4c32)c(F)c1` (stereo not given) displayed a melting point of 308 to 310 °C.
In the case of `Fc1ccc(-c2nc3c(c(=S)[nH]2)CCCC3)cc1`, the melting point is 198 to 200 °C.
Under `COC(=O)c1c(CC#N)c(-c2ccc3c(c2)OCO3)c2c3c(ccc2c1C)OCO3` stands 215 to 217 °C; under `COC(=O)CCCNC(=O)C(CO)NS(=O)(=O)c1ccc(Cl)cc1` (racemic), 119 to 121 °C; under `C#CCOC(=O)c1ncn2c1CN(C)C(=O)c1c(Cl)cccc1-2`, 198 to 200 °C.
`CCC(C=O)c1ccc(S(=O)(=O)NC)cc1` (stereo not given) registered a melting point of 202 to 204 °C.
For the molecule `CCCCCCCCNc1c(Nc2ccc(CC(C)NC[C@H](O)COc3ccc(O)cc3)cc2)c(=O)c1=O` (stereo not given in full), the melting point fell in the range of 122 to 127 °C.
The figure for `COc1cccc(-c2nccc3[nH]c(=O)c(-c4noc(C)n4)cc23)c1` is 281 to 282 °C; for `COc1cc2sc(-c3ccccn3)nc(=O)c2cc1OC` it is 236 to 238 °C; for `O=C(c1ccc(Cl)cc1)c1ccc(SC(F)(F)F)cc1` it is 78 to 79 °C.
The molecule `Nc1ncnc2c1ncn2[C@@H]1C[C@H](O)[C@@H](O)[C@H]1O` (racemic) showed a melting point of 282 °C.
In turn, `CCc1cn2c(n1)Cc1cc3c(cc1C(c1ccc(N)cc1)=N2)OCO3` returned a melting point of 192 to 194 °C.
Under `CCOC(=O)Nc1nc(=O)c2cnn3c2n1CC=C3c1cccc(C(F)(F)F)c1` stands 219 to 220 °C; under `COC[C@@H]1[C@@H](c2ccc(Cl)c(Cl)c2)C[C@@H]2CC[C@H]1N2C`, 73 to 76 °C; under `C=CCc1ccc2oc(C(=O)OCC)cc(=O)c2c1O`, 99 to 100 °C.
The figure for `O=C(O)CCCCCn1c(=O)c2ccccc2n(CCCCN2CCC(OC(c3ccccc3)c3ccccc3)CC2)c1=O` is 155 to 157 °C; for `COc1nc(C)n2nc(S(=O)(=O)Nc3c(Cl)cccc3Cl)nc2c1Cl` it is 255 to 256 °C.
`CCS(=O)(=O)Cc1ccc(Cl)c2nc3n(c12)CCCN3c1ccc(Cl)cc1Cl`: the melting point is 278 to 280 °C.
As to `Cc1cccc(C2(O)CCC(=O)N2C)c1` (stereo not given), the melting point fell in the range of 128 to 130 °C.
Molecule `CNC(=O)c1ccccc1Nc1nc(Nc2cc3c(cc2OC)CC(=O)NCC3)ncc1Cl` returned a melting point of more than 250 °C.
On to `Cc1nn(-c2cc3nc(S(=O)(=O)Cc4ccccc4Cl)sc3cc2Cl)c(=O)n1C(F)F`, for which the melting point is 196 to 198 °C.
In turn, `CCOC(=O)N(N)c1ccc(C)cc1` returned a melting point of 35 °C.
With `CCC(CC)c1ccc(OC)c2nc(Oc3c(C)cc(Cl)cc3Cl)n(C)c12`, the melting point was in the range of 130 to 131 °C.
Molecule `O=C1c2c(Cl)cccc2-n2cnc(-c3noc(C4CC4)n3)c2[C@@H]2CCCN12` came in with a melting point of 236 to 237 °C.
`CC(C)(C)NC(=O)CN(C(=O)CN1C(=O)c2ccccc2C1=O)c1ccccc1` displayed a melting point of 166 °C.
In turn, `O=C(CNc1ccccc1)c1ccccc1` returned a melting point of 97 to 99 °C.
Turning to `CC(=O)c1cccnc1N(C)C1CCN(Cc2ccccc2)CC1`, the melting point lay within 93 to 94 °C.
Under `Oc1ccc(C2OCCO2)cc1Br` stands 76 to 78 °C; under `Cc1nc(Cl)c(Cl)n1CCCCN1CCN(c2ncc(O)cn2)CC1`, 154 to 156 °C; under `CN1C(=O)[C@H](NC(=O)CCc2ccc(F)cc2F)N=C(c2ccccc2)c2ccccc21`, 79 to 81 °C.
For the molecule `COc1ccc2c(c1)c1c3c(ccc1n2C)C(=O)N(CCN(C)C)C3=O`, the melting point was 137 to 138 °C.
Consider `COc1cc2c3c(c1O)-c1ccc(Cl)cc1CC3N(C)CC2` (stereo not given), for which the melting point is 155 to 157 °C.
The molecule `O=C1C(=O)N2CCCc3cc([N+](=O)[O-])cc1c32` returned a melting point of 198 to 199 °C.
Molecule `CC(=O)Nc1nc2c(Oc3cc(-c4ccc(C(F)(F)F)cc4NC(=O)OC(C)(C)C)ncn3)cccc2s1` showed a melting point of 194 to 195 °C.
In turn, `O=C(Nc1ccc(Cl)c2c(Cl)ccnc12)c1c(Cl)cccc1Cl` gave a melting point of 243 to 247 °C.
As for `COc1ccc(Nc2cc(-c3ccc(S(C)(=O)=O)cc3)nc(N)n2)cc1Cl`, the melting point lay within 241 to 244 °C.
Under `CCCNS(=O)(=O)c1cc(C(=O)CCC(=O)OC)ccc1Cl` stands 93 to 94 °C.
With `CC1Cc2cccc3c4oc(=O)c(Sc5cccc(F)c5)c(O)c4c(=O)n1c23` (stereo not given), the melting point was 199 to 200 °C.
`Cc1cccc2c(C(=O)O)cc(-c3ccccn3)nc12`: the melting point was 319 to 320 °C.
Take `COc1ccccc1CCNC[C@H](O)COc1ncccc1C#N`: the melting point is 97 to 99 °C.
In turn, `CCCCc1nc(C(C)(C)O)c(C#N)[nH]1` came in with a melting point of 171 to 172 °C.
Consider `COc1c(C)cc(C(=O)c2ccc([N+](=O)[O-])cc2)cc1C`, for which the melting point lay in the range of 131 to 132 °C.
As to `O=CC=C(c1cccc([N+](=O)[O-])c1)c1cccc([N+](=O)[O-])c1`, the melting point was 131 to 136 °C.
The figure for `CCCCCCCCCCCCCCCCOCC(O)CCSCCCN(C)C` (stereo not given) is 30 to 32 °C; for `N#CC=C1CCN(c2ccc(N3C[C@H](CNC(=O)CBr)OC3=O)cc2F)CC1` it is 160 to 162 °C.
Turning to `Cc1ccc(Nc2ccc(OC(F)(F)F)cc2)cc1`, the melting point was 43.7 °C.
Take `O=C(O)CCCCCOc1c(Cl)cc(NC(=O)NC(=O)c2ccccc2Cl)cc1Cl`: the melting point fell in the range of 171 to 173 °C.
The molecule `CC(=O)n1nc(-c2ccccc2)cc1Sc1ccccc1` yielded a melting point of 83 to 84.5 °C.
